Consider 12 molecules from ChEMBL document CHEMBL1128734, “Pyrrolo[1,2-a]benzimidazole-based quinones and iminoquinones. The role of the 3-substituent on cytotoxicity” (J Med Chem, 1995).

SMILES strings stand for the structures.

Assay [1] is described as follows: COMPARE correlation coefficient of the LC50 response pattern with that of APBI-A.
Assay [2] can be described thus: Ratio of the LC50 value to that of PBI-A. It is filed as functional.
Assay [3] deals with Cancer cell lines. Put plainly: Ratio of the LC50 value to that of imino-APBI-A. Type of assay: functional.

Turning to `CC(=O)NC1=C(C)C(=O)c2c(nc3n2CCC3)C1=O`, in assay [1], the COMPARE correlation coefficient was determined as 0.7.
As for `CC(=O)OC1CCn2c1nc1c2C(=O)C(C)=C(N2CC2)C1=O` (configuration not stated), the Ratio in assay [2] worked out at 1.
`COCC(=O)C1CCn2c1nc1c2C(=O)C(C)=C(NC(C)=O)C1=O` (configuration not stated) gave a COMPARE correlation coefficient in assay [1] of 0.71.
Take `CC1=C(N2CC2)C(=O)c2nc3n(c2C1=O)CCC3`: the Ratio in assay [2] was determined as 0.71.
Regarding `COCC(=O)C1CCn2c1nc1c2C(=O)C(C)=C(NC(C)=O)C1=N` (configuration not stated), the Ratio in assay [3] is 0.52.
On the same count and under the same terms, for `CC(=O)NC1=C(C)C(=O)c2c(nc3n2CCC3OC(=O)c2ccccc2)C1=N` (configuration not stated) the value was 0.58.
`CC1=C(N2CC2)C(=O)c2nc3n(c2C1=O)CCC3OC(N)=O` (configuration not stated): the Ratio in assay [2] worked out at 0.84.
Take `CCC(=O)OC1CCn2c1nc1c2C(=O)C(C)=C(NC(C)=O)C1=N` (configuration not stated): the Ratio in assay [3] came out at 0.26.
On the same count and under the same terms, the result for `CC(=O)NC1=C(C)C(=O)c2c(nc3n2CCC3O)C1=N` (configuration not stated) reads 0.09.
On the same count and under the same terms, the result for `CC(=O)NC1=C(C)C(=O)c2c(nc3n2CCC3OC(C)=O)C1=N` (configuration not stated) reads 1.
As to `CCC(=O)OC1CCn2c1nc1c2C(=O)C(C)=C(N2CC2)C1=O` (configuration not stated), the Ratio in assay [2] is 0.72.
In the case of `CC(=O)NC1=C(C)C(=O)c2c(nc3n2CCC3OC(C)=O)C1=O` (configuration not stated), in assay [1], the COMPARE correlation coefficient worked out at 1.
